# Values joined by “and” are separate entries in the source; they are usually repeats but may differ in a detail not shown here. Equal entries are not always repeated. Where two headings read alike, the source gives them in different places.
# Assays:
# cell line #9 = assay: Induction effects of xanthine derivatives in cell line #9, shake flasks, 6 days at 31° C. (Example 5); type: cell-based, Chinese hamster; conditions: for protein titer compared with the no inducer control culture: concentrations of Table 3 (0.1-1 mM xanthines; 0.5 mM butyrate)
# Method: To dissolve 3-isobutyl-1-methylxanthine (IBX), it was solubilized in water heated to almost the boiling point, and quickly added to the flasks before it precipitated. […] The induction phase of the cell culture was carried out for 6 days at 31° C., and samples were removed for analysis at 3 day and 6 day timepoints.
# [1] = tested on: CHO cells stably transformed with nucleic acids encoding RANK:Fc; assay: Production of RANK:Fc with HMBA, caffeine and/or butyric acid, shaker flask, 5 days at 31° C. (Example 8); type: cell-based, Chinese hamster
# Method: Nucleic acids encoding RANK:Fc inserted into a suitable vector (as described in International Application WO 01/36637) were introduced into CHO cells. […] Cells were grown for a total of 5 days in shaker flasks. Thereafter, all medium was harvested. The number of cells present in the culture was determined by staining with trypan blue and counting the cells in a hemocytometer. […] An average number of cells in the culture was calculated by averaging the starting and ending cell numbers. Specific productivity was determined from the total number of micrograms of RANK:Fc produced, an average cell number (calculated as described above), and the number of days of growth. Nucleic acids encoding RANK:Fc inserted into a suitable vector (as described in International Application WO 01/36637) were introduced into CHO cells. […] Cells were grown for a total of 5 days in a shaker flask. Thereafter, all medium was harvested. The number of cells present in the culture, the titer of RANK:Fc per milliliter of harvested medium, and specific productivity were determined as described above in Example 7.
# [2] = tested on: CHO cells stably transformed with nucleic acids encoding an antibody against a murine IL-4 receptor
# [3] = tested on: CHO cell production line genetically engineered to express TNFR:Fc (cell line #5); assay: Induction of TNFR:Fc expression, shaker flasks, 5 days at 31° C. (Example 1); type: cell-based, Chinese hamster
# Method: CHO cells were grown in spinner flasks at 37° C. using serum-free growth medium containing methotrexate. […] The cells, at initial cell densities of 2×10^6 cells/ml in 20 ml, were placed in 125 ml plastic Erlenmeyer flasks with plug seal caps and placed on shaker platforms in incubators set to the appropriate temperatures. Cell viability and number were monitored by haemocytometer counting using trypan blue dye. Recombinant polypeptide titers were assessed by ELISA-based assays. […] A flask containing no inducing compound was also included. The shaker flasks were incubated in this induction phase for 5 days at 31° C. in incubators without carbon dioxide control.
# [4] = tested on: CHO cells stably transformed with nucleic acids encoding a type II IL-1 receptor; assay: Production of type II IL-1 receptor with HMBA in a bioreactor (Example 9); type: cell-based, Chinese hamster; conditions: 2 mM, added at shift to 31° C. after 2 days at 37° C., 12 more days
# Method: About 500 thousand cells from a stably transformed line were inoculated into a one liter of serum-free medium in a bioreactor. Cells were grown for two days at 37° C. Thereafter, cells were shifted to 31° C., either without HMBA or in the presence of 2 mM HMBA, and grown for 12 more days. Thereafter, all medium was harvested. […] Data from this experiment are shown in Table 6 as a percentage of the average of the protein titers obtained from the two samples without HMBA rounded to the nearest whole number.
# [5] = tested on: CHO cells stably transformed with nucleic acids encoding RANK:Fc; assay: Production of RANK:Fc with varying amounts of HMBA, shaker flasks, 5 days at 31° C. (Example 7); type: cell-based, Chinese hamster
# Method: Nucleic acids encoding RANK:Fc inserted into a suitable vector (as described in International Application WO 01/36637) were introduced into CHO cells. […] Cells were grown for a total of 5 days in shaker flasks. Thereafter, all medium was harvested. The number of cells present in the culture was determined by staining with trypan blue and counting the cells in a hemocytometer. […] An average number of cells in the culture was calculated by averaging the starting and ending cell numbers. Specific productivity was determined from the total number of micrograms of RANK:Fc produced, an average cell number (calculated as described above), and the number of days of growth.
smiles,measurement,setting,value
"Cn1cnc2c1c(=O)[nH]c(=O)n2C [theobromine, 3,7-dimethylxanthine]",Titer (μg/ml) Day 3,cell line #9; 0.1 mM,90 µg/mL
same,Titer (μg/ml) Day 6,cell line #9; 0.1 mM,270 µg/mL
same,Titer (μg/ml) Day 3,cell line #9; 0.5 mM,100 µg/mL
same,Titer (μg/ml) Day 6,cell line #9; 0.5 mM,260 µg/mL
same,Titer (μg/ml) Day 3,cell line #9; 1 mM,100 µg/mL
same,Titer (μg/ml) Day 6,cell line #9; 1 mM,260 µg/mL
same,protein titer compared with the no inducer control culture,cell line #9,did not induce protein titers above that seen in the no inducer control culture
"CCCC(=O)O [Butyric acid, butyric acid]",Specific productivity (μg/10^6 cells/day),[1]; 0.5 mM,31.6 μg/10^6 cells/day
same,Titer of RANK: Fc,[1]; 0.5 mM,476 µg/mL
"CC(C)Cn1c(=O)n(C)c(=O)c2[nH]cnc21 [IBX, 3-isobutyl-1-methylxanthine]",Titer (μg/ml) Day 3,cell line #9; 0.5 mM,150 µg/mL
same,Titer (μg/ml) Day 6,cell line #9; 0.5 mM,420 µg/mL
same,production compared with caffeine,cell line #9; 0.5 mM,even better than caffeine
"CCCC(=O)[O-].[Na+] [butyrate, sodium butyrate]",Titer (μg/ml) Day 3,cell line #9; 0.5 mM,100 µg/mL
same,Titer (μg/ml) Day 6,cell line #9; 0.5 mM,220 µg/mL
same,protein titer compared with the no inducer control culture,cell line #9,does not induce increased protein titer over that seen in a culture with no inducer
same,production of the antibody compared with no inducer,[2]; 0.5 mM,enhanced production of the antibody
same,rate (in μg protein/10^6 cells/day) relative to control cultures,[3]; 0.2 mM,about 1.07 times the rate of control cultures
same,total protein (in μg/ml) relative to control culture,[3]; 0.2 mM,about 1.11 times the total protein produc
"CC(=O)NCCCCCCNC(C)=O [HMBA, hexamethylene bisacetamide]",Specific productivity (μg/10^6 cells/day),[1]; 2 mM,22.8 μg/10^6 cells/day
same,Titer of RANK: Fc,[1]; 2 mM,410 µg/mL
same,Relative Titer of type II IL-1 Receptor (percent of average of samples without HMBA),[4],120% and 125%
same,production of the antibody compared with no inducer,[2]; 2 mM,enhanced production of the antibody
same,extent of enhancement of antibody production compared with sodium butyrate (0.5 mM),"[2]; 2 mM, 31° C.",to a greater extent than did sodium butyrate
same,Specific productivity (μg/10^6 cells/day),[5]; 0.1 mM,19.1 μg/10^6 cells/day
same,Titer of RANK: Fc,[5]; 0.1 mM,243 µg/mL
same,Specific productivity (μg/10^6 cells/day),[5]; 0.5 mM,19.5 μg/10^6 cells/day
same,Titer of RANK: Fc,[5]; 0.5 mM,347 µg/mL
same,Specific productivity (μg/10^6 cells/day),[5]; 2.0 mM,23.9 μg/10^6 cells/day
same,Titer of RANK: Fc,[5]; 2.0 mM,444 µg/mL
"Cn1c(=O)c2c(ncn2C)n(C)c1=O [caffeine, 1,3,7-trimethylxanthine]",Specific productivity (μg/10^6 cells/day),[1]; 1 mM,23.6 μg/10^6 cells/day
same,Titer of RANK: Fc,[1]; 1 mM,362 µg/mL
same,rate of production compared with 0.2 mM butyrate culture,[3]; 0.5 mM,slightly higher rates of production
same,rate of productivity per cell compared with no inducing agent,[3]; 2 mM,higher
"Cn1c(=O)c2[nH]cnc2n(C)c1=O [aminophylline, theophylline compound with 1,2-ethylenediamine (2:1) dihydrate]",Titer (μg/ml) Day 3,cell line #9; 0.1 mM,110 µg/mL
same,Titer (μg/ml) Day 6,cell line #9; 0.1 mM,260 µg/mL
same,Titer (μg/ml) Day 3,cell line #9; 0.5 mM,120 µg/mL
same,Titer (μg/ml) Day 6,cell line #9; 0.5 mM,250 µg/mL
same,Titer (μg/ml) Day 3,cell line #9; 1 mM,100 µg/mL
same,Titer (μg/ml) Day 6,cell line #9; 1 mM,200 µg/mL
same,protein titer compared with the no inducer control culture,cell line #9,did not induce protein titers above that seen in the no inducer control culture

# — patent publication US7452695B2, “Methods for increasing polypeptide production” (Immunex Corporation, priority 2002, dated 2008)
